# Test results: patent US10421774B2 (priority 2016, dated 2019)
# Like-named read-outs stand apart in the source and are kept apart here.
# Columns and labels:
# Assay in all cases: microbe, parasite or virus in culture
# Assay type in all cases: cell-based, HIV-1
# [1] = tested on: T332S/V362I/Pr R41G virus; conditions: for EC50: Human immunodeficiency virus 1, MT2, read-out: T332S/V362I/pr41G EC50
# Experimental: (§1) Cells. MT-2 cells and 293T cells were obtained from the NIH AIDS Research and Reference Reagent Program. Cell lines were sub-cultured twice a week in either RPMI 1640 (MT-2) or DMEM (293T, HeLa) media supplemented with 10% heat inactivated fetal bovine serum (FBS), 100 units/mL of penicillin G and 100 μg/mL of streptomycin. The DMEM medium was additionally supplemented with 10 mM HEPES buffer, pH 7.55, 2 mM L-glutamine and 0.25 μg/mL of amphotericin B.
# (§2) Viruses. NLRepRluc virus contains the Renilla luciferase marker in place of the viral nef gene. The proviral plasmid pNLRepRluc was constructed at Bristol-Myers Squibb, starting from a proviral NL4-3 clone (B subtype) that was obtained from the NIH AIDS Research and Reference Reagent Program. The parental recombinant wild type (WT) virus (NLRepRlucP373S) was derived from NLRepRluc and contains the additional substitution of P373 for serine in Gag (within the SP1 spacer), the most common 373 variation in subtype B. Other recombinant viruses (A364V, V370A/ΔT371 and the “T3325 triple” (T332S/V362I+HIV-1 protease R41G)) were generated by site-directed mutagenesis of plasmid pNLRepRlucP373S to introduce those amino acid substitutions in Gag and protease. Recombinant virus DNA was then used to generate virus stocks by transfection of 293T cells (Lipofectamine PLUS kit, Invitrogen). Titers of virus stocks were determined using a luciferase assay (Dual-Luciferase® Reporter Assay System, Promega, Milwaukee, Wis., USA) endpoint.
# (§3) Multiple cycle drug susceptibility assay. Pellets of MT-2 cells were infected with NLRepRlucP373S Gag site-directed viruses, where initial inocula of the reporter strains were normalized using equivalent endpoint luciferase activity signals. Such cell-virus mixtures were resuspended in medium, incubated for 1-hour at 37° C./CO2, and added to compound containing 96-well plates at a final cell density of 10,000 cells per well. The test compounds were 3-fold serially diluted in 100% DMSO, and assayed at a final DMSO concentration of 1%. After 4-5 day incubation at 37° C./CO2, virus yields were determined by Renilla luciferase activity (Dual-Luciferase® Reporter Assay System, Promega). The endpoint luminescence was detected on a Wallac Trilux (PerkinElmer).
# T332sN362I/Pr R41G (N14.3, B Clade) virus′ was obtained as follows: Selection for resistance of HIV-1 strain […] virus with the HIV maturation inhibitor (MI) compound
# At passage 8 virus was harvested and sequenced.
# (§4) All three recombinant viruses were used as described above in the HIV cell culture assay for the NL4-3 virus.
# gag V370A/ΔT371 virus = conditions: for EC50: Human immunodeficiency virus 1, MT2, read-out: V370A/ΔT371 EC50
# Experimental: as §1, §2, §3
# (§5) HIV-1 NL4-3 expressing Renilla luciferase gene was converted to the gag V370A/ΔT371 virus by site directed mutagenesis. A364V is a site directed mutant.
# as §4
# [2] = tested on: A364V site directed mutant virus; conditions: for EC50: Human immunodeficiency virus 1, MT2, read-out: A364V EC50
# Experimental: as §1, §2, §3, §5, §4
# [3] = tested on: NLRepRlucP373S recombinant wild type (WT) virus
# Experimental: as §1, §2, §3
# (§6) The 50% inhibitory concentrations (EC50S) were calculated by using the exponential form of the median effect equation where Percent Inhibition=1/[1+(EC50/drug conc.^m], where m is a parameter that reflects the slope of the concentration-response curve. Background was taken as the residual signal observed upon inhibition at the highest concentration of a control protease inhibitor, NFV (3 μM).
# as §6, with “The 90%” for “The 50%”, “concentrations (EC90S)” for “concentrations (EC50S)”, “where ECF=[(F/(100−F)]^1/H·EC50,” for “where Percent Inhibition=1/[1+(EC50/drug conc.^m],”, “where H” for “where m”
# [4] = Human immunodeficiency virus 1, MT2, read-out: WT EC50
Structure (SMILES),EC50 [1],EC50 (gag V370A/ΔT371 virus),EC50 [2],"EC50 [3, 4]","EC90 ([1]; Human immunodeficiency virus 1, read-out: T332S/V362I/prR41G EC90)","EC90 (gag V370A/ΔT371 virus; Human immunodeficiency virus 1, read-out: V370A/ΔT371 EC90)","EC90 ([2]; Human immunodeficiency virus 1, read-out: A364V EC90)","EC50 ([3]; Human immunodeficiency virus 1, read-out: WT EC50)"
C=C(C)[C@@H]1CC[C@]2(NCCN3CCS(=O)(=O)CC3)CC[C@]3(C)[C@H](CC[C@@H]4[C@@]5(C)CC=C(C6=CCC(COc7cnnn7CC)(C(=O)O)CC6)C(C)(C)[C@@H]5CC[C@]43C)[C@@H]12 (stereo partly drawn) [Example 7],192 nM,192 nM,95 nM,2 nM,,,,
"C=C(C)[C@@H]1CC[C@]2(NCCN3CCS(=O)(=O)CC3)CC[C@]3(C)[C@H](CC[C@@H]4[C@@]5(C)CC=C(C6=CC[C@@](COc7ncccc7C#N)(C(=O)O)CC6)C(C)(C)[C@@H]5CC[C@]43C)[C@@H]12 [Example 25, (S)-1-(((3-cyanopyridin-2-yl)oxy)methyl)-4-((1R,3aS,5aR,5bR,7aR,11aS,11bR,13aR,13bR)-3a-((2-(1,1-dioxidothiomorpholino)ethyl)amino)-5a,5b,8,8,11a-pentamethyl-1-(prop-1-en-2-yl)-2,3,3a,4,5,5a,5b,6,7,7a,8,11,11a,11b,12,13,13a,13b-octadecahydro-1H-cyclopenta[a]chrysen-9-yl)cyclohex-3-ene-1-carboxylic acid]",10 nM,10 nM,18 nM,2 nM,21 nM,2 nM,41 nM,2 nM
"C=C(C)[C@@H]1CC[C@]2(NCCN3CCS(=O)(=O)CC3)CC[C@]3(C)[C@H](CC[C@@H]4[C@@]5(C)CC=C(C6=CCC(COc7ccc(C#N)cn7)(C(=O)O)CC6)C(C)(C)[C@@H]5CC[C@]43C)[C@@H]12 (stereo partly drawn) [Example 38, 1-(((5-cyanopyridin-2-yl)oxy)methyl)-4-((1R,3aS,5aR,5bR,7aR,11aS,11bR,13aR,13bR)-3a-((2-(1,1-dioxidothiomorpholino)ethyl)amino)-5a,5b,8,8,11a-pentamethyl-1-(prop-1-en-2-yl)-2,3,3a,4,5,5a,5b,6,7,7a,8,11,11a,11b,12,13,13a,13b-octadecahydro-1H-cyclopenta[a]chrysen-9-yl)cyclohex-3-ene-1-carboxylic acid]",232 nM,232 nM,29 nM,2 nM,,,,
"C=C(C)[C@@H]1CC[C@]2(NCCN3CCS(=O)(=O)CC3)CC[C@]3(C)[C@H](CC[C@@H]4[C@@]5(C)CC=C(C6=CC[C@](COc7ncccc7C#N)(C(=O)O)CC6)C(C)(C)[C@@H]5CC[C@]43C)[C@@H]12 [Example 23, (R)-1-(((3-cyanopyridin-2-yl)oxy)methyl)-4-((1R,3aS,5aR,5bR,7aR,11aS,11bR,13aR,13bR)-3a-((2-(1,1-dioxidothiomorpholino)ethyl)amino)-5a,5b,8,8,11a-pentamethyl-1-(prop-1-en-2-yl)-2,3,3a,4,5,5a,5b,6,7,7a,8,11,11a,11b,12,13,13a,13b-octadecahydro-1H-cyclopenta[a]chrysen-9-yl)cyclohex-3-ene-1-carboxylic acid]",6 nM,< 50 nM,> 50 nM,2 nM,,,,
"C=C(C)[C@@H]1CC[C@]2(NCC[C@]3(O)CC[C@@H](S(C)(=O)=O)CC3)CC[C@]3(C)[C@H](CC[C@@H]4[C@@]5(C)CC=C(C6=CC[C@](COc7ncccc7C#N)(C(=O)O)CC6)C(C)(C)[C@@H]5CC[C@]43C)[C@@H]12 [Example A5, (R)-1-(((3-cyanopyridin-2-yl)oxy)methyl)-4-((1R,3aS,5aR,5bR,7aR,11aS,11bR,13aR,13bR)-3a-((2-((1s,4R)-1-hydroxy-4-(methylsulfonyl)cyclohexyl)ethyl)amino)-5a,5b,8,8,11a-pentamethyl-1-(prop-1-en-2-yl)-2,3,3a,4,5,5a,5b,6,7,7a,8,11,11a,11b,12,13,13a,13b-octadecahydro-1H-cyclopenta[a]chrysen-9-yl)cyclohex-3-enecarboxylic acid]",3 nM,3 nM,6 nM,2 nM,,,,
"C=C(C)[C@@H]1CC[C@]2(NCCN3CCS(=O)(=O)CC3)CC[C@]3(C)[C@H](CC[C@@H]4[C@@]5(C)CC=C(C6=CCC(COc7cc(-c8ccccc8)nn7C)(C(=O)O)CC6)C(C)(C)[C@@H]5CC[C@]43C)[C@@H]12 (stereo partly drawn) [Example 2, 4-((1R,3aS,5aR,5bR,7aR,11aS,11bR,13aR,13bR)-3a-((2-(1,1-dioxidothiomorpholino)ethyl)amino)-5a,5b,8,8,11a-pentamethyl-1-(prop-1-en-2-yl)-2,3,3a,4,5,5a,5b,6,7,7a,8,11,11a,11b,12,13,13a,13b-octadecahydro-1H-cyclopenta[a]chrysen-9-yl)-1-(((1-methyl-3-phenyl-1H-pyrazol-5-yl)oxy)methyl)cyclohex-3-ene-1-carboxylic acid]",3000 nM,,1940 nM,3000 nM,,,,
"C=C(C)[C@@H]1CC[C@]2(NCCN3CCS(=O)(=O)CC3)CC[C@]3(C)[C@H](CC[C@@H]4[C@@]5(C)CC=C(C6=CCC(COc7cccnc7)(C(=O)O)CC6)C(C)(C)[C@@H]5CC[C@]43C)[C@@H]12 (stereo partly drawn) [Example 10, 4-((1R,3aS,5aR,5bR,7aR,11aS,11bR,13aR,13bR)-3a-((2-(1,1-dioxidothiomorpholino)ethyl)amino)-5a,5b,8,8,11a-pentamethyl-1-(prop-1-en-2-yl)-2,3,3a,4,5,5a,5b,6,7,7a,8,11,11a,11b,12,13,13a,13b-octadecahydro-1H-cyclopenta[a]chrysen-9-yl)-1-((pyridin-3-yloxy)methyl)cyclohex-3-enecarboxylic acid]",6 nM,,27 nM,2 nM,,,,
"C=C(C)[C@@H]1CC[C@]2(NCCN3CCC(S(C)(=O)=O)CC3)CC[C@]3(C)[C@H](CC[C@@H]4[C@@]5(C)CC=C(C6=CCC(COc7cccnc7)(C(=O)O)CC6)C(C)(C)[C@@H]5CC[C@]43C)[C@@H]12 (stereo partly drawn) [Example 11, 4-((1R,3aS,5aR,5bR,7aR,11aS,11bR,13aR,13bR)-5a,5b,8,8,11a-pentamethyl-3a-((2-(4-(methylsulfonyl)piperidin-1-yl)ethyl)amino)-1-(prop-1-en-2-yl)-2,3,3a,4,5,5a,5b,6,7,7a,8,11,11a,11b,12,13,13a,13b-octadecahydro-1H-cyclopenta[a]chrysen-9-yl)-1-((pyridin-3-yloxy)methyl)cyclohex-3-enecarboxylic acid]",8 nM,,18 nM,2 nM,,,,
C=C(C)[C@@H]1CC[C@]2(NCCN3CCS(=O)(=O)CC3)CC[C@]3(C)[C@H](CC[C@@H]4[C@@]5(C)CC=C(C6=CCC(COc7cc(C(F)(F)F)n(C)n7)(C(=O)O)CC6)C(C)(C)[C@@H]5CC[C@]43C)[C@@H]12 (stereo partly drawn) [Example 3],2170 nM,,2220 nM,9 nM,,,,
"C=C(C)[C@@H]1CC[C@]2(NCCN3CCS(=O)(=O)CC3)CC[C@]3(C)[C@H](CC[C@@H]4[C@@]5(C)CC=C(C6=CCC(COc7ccncc7)(C(=O)O)CC6)C(C)(C)[C@@H]5CC[C@]43C)[C@@H]12 (stereo partly drawn) [Example 9, 4-((1R,3aS,5aR,5bR,7aR,11aS,11bR,13aR,13bR)-3a-((2-(1,1-dioxidothiomorpholino)ethyl)amino)-5a,5b,8,8,11a-pentamethyl-1-(prop-1-en-2-yl)-2,3,3a,4,5,5a,5b,6,7,7a,8,11,11a,11b,12,13,13a,13b-octadecahydro-1H-cyclopenta[a]chrysen-9-yl)-1-((pyridin-4-yloxy)methyl)cyclohex-3-ene-1-carboxylic acid]",14 nM,,35 nM,2 nM,,,,
